From US20240116985A1, “STAPLED PEPTIDES AND METHODS THEREOF” (priority 2020, published 2024)
Values after ≈ are worked out from the molar mass of the structure shown. Values joined by “and” are separate entries in the source; they are usually repeats but may differ in a detail not shown here. Equal entries are not always repeated. Where two headings read alike, the source gives them in different places.

Key:
[1] = target: T1, full-length beta-Catenin (Uniprot ID P35222) (Homo sapiens, UniProt P35222); assay: Fluorescence polarization IC50 (beta-catenin / 5FAM-TCF4 10-53 competition); assay type: binding
T1 construct: 10 nM full-length beta-Catenin (Uniprot ID P35222)
T1 sequence (P35222 1-781): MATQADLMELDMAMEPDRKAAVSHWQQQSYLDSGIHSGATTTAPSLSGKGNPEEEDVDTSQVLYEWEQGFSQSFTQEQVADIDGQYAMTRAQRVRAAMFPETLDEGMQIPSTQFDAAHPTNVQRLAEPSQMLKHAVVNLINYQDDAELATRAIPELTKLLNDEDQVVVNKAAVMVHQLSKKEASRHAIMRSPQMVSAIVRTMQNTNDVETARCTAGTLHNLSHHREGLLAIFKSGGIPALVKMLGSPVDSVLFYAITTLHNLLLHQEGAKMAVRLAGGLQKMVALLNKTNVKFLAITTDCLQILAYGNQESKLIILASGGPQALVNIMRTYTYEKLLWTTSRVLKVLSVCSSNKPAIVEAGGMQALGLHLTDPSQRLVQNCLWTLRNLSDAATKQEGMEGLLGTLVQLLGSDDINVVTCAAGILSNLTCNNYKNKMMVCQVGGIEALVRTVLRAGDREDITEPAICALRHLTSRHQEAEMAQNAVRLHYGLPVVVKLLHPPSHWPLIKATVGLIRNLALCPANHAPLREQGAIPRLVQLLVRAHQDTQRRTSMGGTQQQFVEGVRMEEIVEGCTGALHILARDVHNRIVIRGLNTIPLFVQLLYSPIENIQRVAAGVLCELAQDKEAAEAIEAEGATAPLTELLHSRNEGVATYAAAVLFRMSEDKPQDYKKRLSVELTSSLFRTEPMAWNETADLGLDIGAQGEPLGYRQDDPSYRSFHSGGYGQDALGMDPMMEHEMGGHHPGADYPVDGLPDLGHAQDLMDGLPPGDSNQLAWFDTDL

[2] = CHI Log D procedure; assay type: physicochemical; details: for chromatographic logD: pH 7.4, CHI Log D
[3] = Solubility in PBS; assay type: physicochemical
Outline: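 PBS sample ultracentrifuged; supernatant run on HPLC vs. 50 μM peptide in DMSO standard. Solubility = (PBS peak area / DMSO peak area) × 50 uM.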

[4] = target: T2, beta-catenin/TCF4 engagement (Homo sapiens, UniProt P35222); assay: Nano-BRET target engagement assay (B-cat-Halo & TCF4-Luc in HEK293 cells); assay type: cell-based; details: read-out: NanoBRET Abs IC50
T2 construct: expressed in transfected cells; host or cells: HEK293
T2 sequence (P35222 1-781): T1 sequence (P35222 1-781)

[5] = tested on: TCF/LEF luciferase Reporter in DLD1 cells; assay: TCF reporter assay (DLD1 TCF/LEF luciferase reporter, Bright-Glo); assay type: cell-based; details: for DLD1 TCF c2 BrightGlo % Inhibition: replicates
Outline: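 Readouts: Bright-Glo luciferase for reporter signal and CellTiter-Glo for cell viability, with absolute IC50 derived. The reporter clone came from lentiviral TCF/LEF-luciferase transduction of DLD1 cells, seeded 5000 cells/well in RPMI with 4% FBS and exposed overnight to serially diluted compounds.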

[6] = absolute IC50, read-out: DLD1 reporter assay Abs IC50
[7] = first dose = 20 uM (plate map), 20 µM
[8] = third dose = 5 uM (plate map), 5 µM
[9] = read-out: DLD1 4% Abs IC50, DLD1 4%

Row | SMILES | IC50 ([1]; read-out: beta-Catenin FP IC50) | chromatographic logD [2] | Solubility ([3]; Solubility (uM)) | IC50 ([4]; absolute IC50) | IC50 [5, 6] | DLD1 TCF c2 BrightGlo % Inhibition [5, 7] | DLD1 TCF c2 BrightGlo % Inhibition ([5]; 0.625 µM) | DLD1 TCF c2 BrightGlo % Inhibition ([5]; 1.25 µM) | DLD1 TCF c2 BrightGlo % Inhibition ([5]; 2.5 µM) | DLD1 TCF c2 BrightGlo % Inhibition ([5]; 10 µM) | DLD1 TCF c2 BrightGlo % Inhibition [5, 8] | IC50 [5, 9] | IC50 ([1]; fluorescence polarization, beta-catenin, read-out: FP EC50) | CHI Log D ([2]; pH 7.4) | Solubility [3] | IC50 [4]
1 | CC(=O)N1CCC[C@]12CC=CCCCC1(CCCC=CCCCOC(=O)N3CC[C@@](C(=O)N[C@@H](Cc4ccccc4Cl)C(=O)N[C@@H](Cc4csc5ccccc45)C(=O)N[C@@H](CO)C(N)=O)(C3)NC(=O)[C@H](CO)NC(=O)[C@H](Cc3ccccc3)NC(=O)[C@H](C)NC(=O)[C@H](C)NC(=O)[C@H](CC(=O)O)NC(=O)[C@H](CC(=O)O)NC1=O)NC(=O)[C@H](CC1CCCCC1)NC(=O)[C@H](CC(=O)O)NC2=O (stereo partly drawn) [I-1050, Ac-PL3-Asp-Cha-B5-Asp-Asp-Ala-Ala-Phe-Ser-PyrS2-2C1F-BztA-Ser-NH2] | 0.005 µM | 2.45 | 43 µM (≈ 81.9 µg/mL) | 24.8 µM | 11.2 µM | 61.5% and 59.8% and 58.7% | 13.7% and 5.5% and 6.1% | 6.8% and −0.9% and −4.5% | 6.2% and 1.9% and −2.2% | 50.8% and 46.4% and 39.4% | 25.4% and 24.7% and 12.9% | – | – | – | – | –
2 | CC(=O)N1CCC[C@]12CC=CCCCC1(CCCC=CCCCOC(=O)N3CC[C@@](C(=O)N[C@@H](Cc4ccccc4Cl)C(=O)N[C@@H](Cc4csc5ccccc45)C(=O)N[C@@H](CO)C(N)=O)(C3)NC(=O)[C@H](CO)NC(=O)[C@H](Cc3ccccc3)NC(=O)[C@H](C)NC(=O)[C@H](C)NC(=O)[C@H](CC(=O)O)NC(=O)[C@H](CC(=O)O)NC1=O)NC(=O)[C@H](Cc1ccccc1)NC(=O)[C@H](CC(=O)O)NC2=O (stereo partly drawn) [I-1051, Ac-PL3-Asp-Phe-B5-Asp-Asp-Ala-Ala-Phe-Ser-PyrS2-2C1F-BztA-Ser-NH2] | 0.014 µM | 2.23 | 48 µM (≈ 91.1 µg/mL) | > 20 µM | > 20 µM | 20.2% and 21.7% and 24.7% | −1.7% and −3.4% and 0.0% | −12.2% and −5.2% and −3.8% | −12.5% and −11.1% and −13.2% | 3.9% and 5.0% and −0.5% | −4.1% and −5.0% and −11.4% | – | – | – | – | –
3 | CCNC(=O)[C@H](CCC(N)=O)NC(=O)[C@H](Cc1csc2ccccc12)NC(=O)[C@H](Cc1ccccc1Cl)NC(=O)[C@]12CCN(C1)C(=O)OCCCC=CCCCC1(CCCC=CC[C@]3(CCCN3C(C)=O)C(=O)N[C@@H](CC(=O)O)C(=O)N[C@@H](CC(C)(C)C)C(=O)N1)C(=O)N[C@@H](CC(=O)O)C(=O)N[C@@H](CC(=O)O)C(=O)N[C@@H](C)C(=O)N[C@@H](C)C(=O)N[C@@H](Cc1ccccc1)C(=O)N[C@@H](CC(N)=O)C(=O)N2 (stereo partly drawn) [I-1079, Ac-PL3-Asp-Npg-B5-Asp-Asp-Ala-Ala-Phe-Asn-PyrS2-2C1F-BztA-Gln-NHEt] | 0.005 µM | 2.5 | 45 µM (≈ 88.9 µg/mL) | 19.7 µM | 14.5 µM | 55.6% and 58.1% and 54.7% | 1.4% and 6.9% and 6.8% | 1.4% and −0.6% and 2.6% | −25.7% and −0.8% and 5.1% | 34.2% and 39.4% and 42.0% | 7.4% and 16.0% and 26.5% | – | – | – | – | –
4 | CC(=O)N1CCC[C@]12CC=CCCCC1(CCCC=CCCCOC(=O)N3CC[C@@](C(=O)N[C@@H](Cc4ccccc4Cl)C(=O)N[C@@H](Cc4csc5ccccc45)C(=O)N[C@H](CO)CC(C)C)(C3)NC(=O)[C@H](CC(N)=O)NC(=O)[C@H](Cc3ccccc3)NC(=O)[C@H](C)NC(=O)[C@H](C)NC(=O)[C@H](CC(=O)O)NC(=O)[C@H](CC(=O)O)NC1=O)NC(=O)[C@H](CC(C)(C)C)NC(=O)[C@H](CC(=O)O)NC2=O (stereo partly drawn) [I-1080, Ac-PL3-Asp-Npg-B5-Asp-Asp-Ala-Ala-Phe-Asn-PyrS2-2C1F-BztA-Leuo1] | 0.006 µM | 2.59 | 47 µM (≈ 90.2 µg/mL) | > 20 µM | 17.2 µM | 51.4% and 56.9% and 51.8% | 20.2% and 13.7% and 15.3% | 16.0% and 13.8% and 12.3% | 14.6% and 19.8% and 7.9% | 42.4% and 42.2% and 38.1% | 24.9% and 31.0% and 24.4% | 10.4 µM | – | – | – | –
5 | CC(=O)N1CCC[C@]12CC=CCCCC1(CCCC=CCCCOC(=O)N3CC[C@@](C(=O)N[C@@H](Cc4ccccc4Cl)C(=O)N[C@@H](Cc4csc5ccccc45)C(=O)N[C@@H](C)CO)(C3)NC(=O)[C@H](CC(N)=O)NC(=O)[C@H](Cc3ccccc3)NC(=O)[C@H](C)NC(=O)[C@H](C)NC(=O)[C@H](CC(=O)O)NC(=O)[C@H](CC(=O)O)NC1=O)NC(=O)[C@H](CC(C)(C)C)NC(=O)[C@H](CC(=O)O)NC2=O (stereo partly drawn) [I-1081, Ac-PL3-Asp-Npg-B5-Asp-Asp-Ala-Ala-Phe-Asn-PyrS2-2C1F-BztA-Alao1] | 0.005 µM | 2.4 | 43 µM (≈ 80.7 µg/mL) | 16.7 µM | 10 µM | 67.2% and 69.3% and 72.3% | 9.2% and 7.1% and 11.5% | 0.8% and 2.4% and 5.4% | 4.5% and 7.9% and 15.2% | 45.6% and 49.8% and 55.3% | 17.5% and 23.8% and 31.0% | 10.6 µM | – | – | – | –
6 | CC(=O)N1CCC[C@]12CC=CCCCC1(CCCC=CCCCOC(=O)N3CC[C@@](C(=O)N[C@@H](Cc4ccccc4Cl)C(=O)N[C@@H](Cc4csc5ccccc45)C(=O)N[C@H](CO)[C@@H](C)O)(C3)NC(=O)[C@H](CC(N)=O)NC(=O)[C@H](Cc3ccccc3)NC(=O)[C@H](C)NC(=O)[C@H](C)NC(=O)[C@H](CC(=O)O)NC(=O)[C@H](CC(=O)O)NC1=O)NC(=O)[C@H](CC(C)(C)C)NC(=O)[C@H](CC(=O)O)NC2=O (stereo partly drawn) [I-1082, Ac-PL3-Asp-Npg-B5-Asp-Asp-Ala-Ala-Phe-Asn-PyrS2-2C1F-BztA-Thro1] | 0.005 µM | 2.33 | 48 µM (≈ 91.5 µg/mL) | 14.1 µM | 4.8 µM | 76.5% and 77.1% and 79.9% | 14.1% and 17.4% and 20.3% | 14.0% and 21.5% and 24.0% | 17.3% and 36.1% and 37.9% | 63.9% and 71.0% and 75.0% | 38.5% and 56.2% and 62.0% | – | – | – | – | –
7 | CC(=O)N1CCC[C@]12CC=CCCCC1(CCCC=CCCCCCC[C@@](C)(C(=O)N[C@@H](Cc3ccccc3Cl)C(=O)N[C@@H](Cc3csc4ccccc34)C(=O)N[C@@H](CCC(N)=O)C(N)=O)NC(=O)[C@H]([C@@H](C)O)NC(=O)[C@H](Cc3ccccc3)NC(=O)[C@H](C)NC(=O)[C@H](C)NC(=O)[C@H](CC(=O)O)NC(=O)[C@H](CC(=O)O)NC1=O)NC(=O)[C@H](CC(C)(C)C)NC(=O)[C@H](CC(=O)O)NC2=O (stereo partly drawn) [I-1087, Ac-PL3-Asp-Npg-B5-Asp-Asp-Ala-Ala-Phe-Thr-S8-2C1F-BztA-Gln-NH2] | 0.009 µM | – | – | 9.3 µM | > 20 µM | – | – | – | – | – | – | – | 0.009 µM | 2.766 | 44 µM (≈ 83.2 µg/mL) | 9.3 µM
8 | CC(=O)N1CCC[C@]12CC=CCCCC1(CCCC=CCCCCCC[C@@](C)(C(=O)N[C@@H](Cc3ccccc3Cl)C(=O)N[C@@H](Cc3csc4ccccc34)C(=O)N[C@@H](C(N)=O)[C@H](C)O)NC(=O)[C@H](CC(C)C)NC(=O)[C@H](Cc3ccccc3)NC(=O)[C@H](C)NC(=O)[C@H](C)NC(=O)[C@H](CC(=O)O)NC(=O)[C@H](CC(=O)O)NC1=O)NC(=O)[C@H](CC(C)(C)C)NC(=O)[C@H](CC(=O)O)NC2=O (stereo partly drawn) [I-1097, Ac-PL3-Asp-Npg-B5-Asp-Asp-Ala-Ala-Phe-Leu-S8-2C1F-BztA-dThr-NH2] | 0.04 µM | 3.61 | 20 µM (≈ 37.5 µg/mL) | > 20 µM | > 20 µM | – | – | – | – | – | – | – | – | – | – | –
